Reference: PubChem BioAssay (NCI)
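Cells were grown in 96-well plates and exposed to each compound for 48 hours at five concentrations; endpoints were interpolated linearly between bracketing concentrations, or set to the highest concentration if not reached. Here, GI50 denotes the concentration required for 50% inhibition of growth. TGI denotes the concentration required for complete inhibition of growth.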

How the values were obtained:
Test in all cases: NCI anticancer screen, dose series, 48 h
CCRF-CEM leukemia = test system: CCRF-CEM leukemia
EKVX NSCLC = test system: EKVX NSCLC
HCT-116 colon = test system: HCT-116 colon
HOP-62 NSCLC = test system: HOP-62 NSCLC
HT29 colon = test system: HT29 colon
SNB-75 CNS = test system: SNB-75 CNS
T-47D breast = test system: T-47D breast
TK-10 renal = test system: TK-10 renal

SMILES	TGI (CCRF-CEM leukemia)	TGI (EKVX NSCLC)	TGI (HCT-116 colon)	TGI (HOP-62 NSCLC)	TGI (HT29 colon)	TGI (SNB-75 CNS)	TGI (T-47D breast)	TGI (TK-10 renal)	GI50 (CCRF-CEM leukemia)	GI50 (EKVX NSCLC)	GI50 (HCT-116 colon)	GI50 (HOP-62 NSCLC)	GI50 (HT29 colon)	GI50 (SNB-75 CNS)	GI50 (T-47D breast)	GI50 (TK-10 renal)
NC(Cc1cc(Br)c(O)c(Br)c1)C(=O)O (configuration not stated)	> 100 µM	> 100 µM	> 100 µM	> 100 µM	> 100 µM	> 100 µM	> 100 µM	> 100 µM	–	–	–	–	–	–	–	–
COc1ccc(C2=C(Br)C(=O)OC2)cc1Cl	> 68 µM	71.4 µM	49.5 µM	> 100 µM	> 100 µM	> 100 µM	35.5 µM	77.9 µM	21900 nM	16700 nM	20400 nM	44400 nM	48400 nM	55800 nM	1930 nM	26.8 µM
O=[n+]1cnn([O-])c2ccccc21	> 100 µM	91.7 µM	36.9 µM	49.9 µM	40.4 µM	> 100 µM	29.7 µM	> 100 µM	–	–	–	–	–	–	–	–
NC(=O)Cc1ccccc1Oc1nccc(-c2c(-c3ccc(F)cc3)ncn2C2CCNCC2)n1	> 25 µM	> 25 µM	> 25 µM	> 25 µM	> 25 µM	> 25 µM	> 25 µM	> 25 µM	> 25000 nM	> 25000 nM	> 25000 nM	> 25000 nM	> 25000 nM	> 19100 nM	> 25000 nM	> 25 µM
O=C1OCC2=C1C(c1ccccc1)c1cc3c(cc1N2CCO)CCC3 (configuration not stated)	> 25 µM	> 25 µM	5.42 µM	> 25 µM	–	> 25 µM	> 25 µM	> 25 µM	117 nM	1160 nM	85.7 nM	131 nM	87.8 nM	78.6 nM	92.2 nM	1.52 µM
CC(C)[C@@H]1NC(=O)[C@]2(C)CSC(=N2)c2csc(n2)CNC(=O)C[C@@H](/C=C/CCS)OC1=O	> 100 µM	> 100 µM	1.08 µM	> 29.1 µM	> 100 µM	> 100 µM	7.5 µM	1.35 µM	276 nM	198 nM	123 nM	45.3 nM	183 nM	68.6 nM	491 nM	0.0864 µM
O=C(/C=C/c1ccccc1O)c1ccccc1	8.19 µM	29.2 µM	2.99 µM	52.7 µM	15.4 µM	–	64.5 µM	24.7 µM	2640 nM	11000 nM	1580 nM	17200 nM	3550 nM	–	14700 nM	11.9 µM
O=C(Nc1cccnc1)c1cccs1	–	> 100 µM	> 100 µM	> 100 µM	> 100 µM	> 100 µM	> 100 µM	> 100 µM	–	> 100000 nM	1890 nM	42200 nM	2390 nM	4770 nM	> 100000 nM	> 100 µM
COC(=O)c1c2c(c[n+]([O-])c1C)C(=O)C(NCc1ccccc1)=CC2=O	> 25.8 µM	2.56 µM	0.924 µM	2.94 µM	> 20.3 µM	3.27 µM	1.53 µM	7.07 µM	512 nM	1060 nM	269 nM	1420 nM	430 nM	1760 nM	327 nM	3.17 µM
C[CH2][Sn]1([CH2]C)[O]C2C(O)OC(CO)C(O)C2[O]1 (configuration not stated)	–	–	> 100 µM	> 100 µM	> 100 µM	> 100 µM	32.3 µM	36.5 µM	–	–	77700 nM	> 100000 nM	65000 nM	> 100000 nM	14600 nM	18.4 µM
Clc1ccc(N/N=C/c2ccccn2)nc1	> 100 µM	> 100 µM	> 100 µM	> 80.3 µM	> 100 µM	> 45.8 µM	> 63.5 µM	> 100 µM	332 nM	352 nM	305 nM	421 nM	574 nM	1740 nM	349 nM	0.442 µM
Cc1ccccc1NC(=O)N/C(N)=N/c1nc2ccccc2s1	> 100 µM	> 100 µM	–	> 100 µM	> 100 µM	0.446 µM	–	> 100 µM	40.2 nM	–	45.6 nM	110 nM	39 nM	< 16.5 nM	–	3.78 µM
Cc1c(NC(=O)CCCl)c(=O)oc2c(C)c3occc(=O)c3cc12	> 100 µM	> 100 µM	> 100 µM	> 100 µM	> 100 µM	> 100 µM	> 100 µM	> 100 µM	–	–	–	–	–	–	–	–
O=C(Nc1cccc(-n2cc(-c3ccncc3)c(-c3cc(O)cc(Cl)c3)n2)c1)Nc1ccc(Cl)c(Cl)c1	–	–	4.1 µM	8.51 µM	3.9 µM	4.82 µM	6.17 µM	–	–	–	1740 nM	2820 nM	1920 nM	1380 nM	2390 nM	–
CCCCCCCCCCCCCCCCCC(=O)[O][Sn]([CH2]CCC)([CH2]CCC)[CH2]CCC	–	0.297 µM	0.25 µM	0.332 µM	0.311 µM	0.269 µM	0.293 µM	0.311 µM	170 nM	71.3 nM	117 nM	158 nM	113 nM	124 nM	124 nM	0.164 µM
C=C1C(=O)O[C@H]2[C@H]1CC/C(COC(=O)NCc1c[nH]c3ccc(OC)cc13)=C\CC[C@@]1(C)O[C@@H]21	1.07 µM	6.2 µM	1.22 µM	24.1 µM	2.71 µM	23.5 µM	4.38 µM	3.84 µM	152 nM	2070 nM	268 nM	10600 nM	1020 nM	11000 nM	1890 nM	1.95 µM
